Results reported in BindingDB's records for doi:10.7270/Q2PG1Q6D (Burnham Center For Chemical Genomics, 2011).
pIC50: −log10 of the molar value.

Molecular target: T1, Protein Mdm4 (Homo sapiens, UniProt O15151)
T1 sequence (O15151 whole entry): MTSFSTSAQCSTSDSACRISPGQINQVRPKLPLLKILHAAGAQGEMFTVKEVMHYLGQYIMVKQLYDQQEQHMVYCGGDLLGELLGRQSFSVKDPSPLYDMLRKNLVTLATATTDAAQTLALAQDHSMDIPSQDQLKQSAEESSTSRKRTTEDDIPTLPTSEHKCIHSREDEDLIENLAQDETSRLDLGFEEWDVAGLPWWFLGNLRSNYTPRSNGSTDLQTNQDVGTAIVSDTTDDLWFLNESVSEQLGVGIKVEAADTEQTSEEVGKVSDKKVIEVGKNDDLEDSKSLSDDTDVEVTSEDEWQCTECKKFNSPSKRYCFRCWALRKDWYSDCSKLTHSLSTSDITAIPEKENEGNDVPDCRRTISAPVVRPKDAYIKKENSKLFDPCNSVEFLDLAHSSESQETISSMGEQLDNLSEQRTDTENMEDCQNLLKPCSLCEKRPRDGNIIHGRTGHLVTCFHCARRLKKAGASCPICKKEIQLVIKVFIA
Assay: disruption of Mdm2/MdmX protein binding – luminescence detection, dose response (AID 504593)

- pIC50: 5.17
SMILES: Cc1cc(N=NC(C)c2ccccc2O)nc(-c2ccccc2O)n1 (stereo unspecified)
